According to patent publication US7960397B2, “6,9-disubstituted purine derivatives and their use as cosmetics and cosmetic compositions” (Institute of Experimental Botany, Academy of Sciences of …, priority 2007, dated 2011):
Where two headings read alike, the source gives them in different places.

Columns and labels:
[1] = system: cytokinin-dependent tobacco callus Nicotiana tabacum L. cv. Wisconsin 38; test: Cytokinin activity in tobacco callus bioassay; format: cell-based; details: for concentration with highest activity: growth of tobacco callus, four weeks of cultivation, tested 10^−8 M to 10^−4 M; for Activity (%) [10^−5 mol · l^−1 BAP = 100%]: increase of fresh callus weight at the concentration with highest activity, 10^−5 M BAP = 100%
[2] = system: Amaranthus caudatus cotyledon/hypocotyl explants; test: Amaranthus bioassay (betacyanin content); design: species or system Amaranthus caudatus var. atropurpurea; details: for concentration with highest activity: betacyanin content after 48 h incubation, tested 10^−8 M to 10^−4 M; for Activity (%) [10^−5 mol · l^−1 BAP = 100%]: betacyanin content at the concentration with highest activity, 10^−5 M BAP = 100%
Procedure, shortened: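 Amaranthus caudatus explants (cotyledons plus hypocotyl) from 72 h dark-grown seedlings were incubated in darkness on medium with 10 mmol Na2HPO4–KH2PO4 pH 6.8, 5 mmol tyrosine and test compound; stock was 10^−3 M in DMSO/water. Betacyanin was measured as A537−A620 and activity expressed relative to 10^−5 M BAP (100%).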

excised wheat leaf tips = test: Antisenescence test, retention of chlorophyll in excised wheat leaf tips; design: species or system Triticum aestivum cv. Hereward; details: for activity (%) [10^−4 mol · l^−1 BAP = 100%]: retention of chlorophyll in excised wheat leaf tips at the concentration with highest activity, 10 replicate determinations; for concentration with highest activity: retention of chlorophyll in excised wheat leaf tips, tested range 10^−8 M to 10^−4 M, 96 h in the dark at 25° C.
Procedure, shortened: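 Winter wheat seedlings (Triticum aestivum cv. Hereward) were raised on vermiculite with Knop's solution at 25° C. for 7 days. Tips of the first leaf, 35 mm long (five tips, 100 mg combined), stood in […] of test solution in microtiter wells. After 96 h in the dark at 25° C., chlorophyll was extracted in 80% ethanol at 80° C. and read at 665 nm. Activity is relative to 10^−4 M BAP (100%).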

[3] = system: human diploid fibroblasts (HCA cells, HCA20, HCA40, HCA60); test: Senescent cells (β-galactosidase staining) in culture of human fibroblasts; format: cell-based; details: for SENESCENT CELLS (%) HCA20: human fibroblasts passage 20 (HCA20); for SENESCENT CELLS (%) HCA40: human fibroblasts passage 40 (HCA40); for SENESCENT CELLS (%) HCA60: human fibroblasts passage 60 (HCA60)
Procedure, shortened: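 Fibroblasts taken at passages 20, 40 and 60 were washed and fixed for 5 min at room temperature in 2% formaldehyde/0.2% glutaraldehyde in PBS. After PBS washes, cells were incubated at 37 °C for β-galactosidase staining.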

[4] = system: Human T-lymphoblastic leukemia cell line CEM; test: In vitro cytotoxicity, Calcein AM assay; details: read-out: GI50 CEM
[5] = system: promyelocytic HL-60 leukemia; test: In vitro cytotoxicity, Calcein AM assay; details: read-out: GI50 HL60
Protocol: (§1) Because only metabolically active cells cleave Calcein AM, these assays detect viable cells exclusively. The quantity of reduced Calcein AM corresponds to the number of vital cells in the culture.
(§2) The cells were maintained in Nunc/Corning 80 cm^2 plastic tissue culture flasks and cultured in cell culture medium (DMEM with 5 g/l glucose, 2 mM glutamine, 100 U/ml penicillin, 100 mg/ml streptomycin, 10% fetal calf serum and sodium bicarbonate).
(§3) The cell suspensions that were prepared and diluted according to the particular cell type and the expected target cell density (2,500-30,000 cells per well based on cell growth characteristics) were added by pipette (80 ml) into 96-well microtiter plates. Inoculates were allowed a pre-incubation period of 24 hours at 37° C. and 5% CO2 for stabilization. Four-fold dilutions of the intended test concentration were added at time zero in 20 ml aliquots to the microtiter plate wells. Usually, the compound tested was evaluated at six 4-fold dilutions. […] All drug concentrations were examined in duplicate. Incubations of cells with the tested compounds lasted for 72 hours at 37° C., in a 5% CO2 atmosphere and 100% humidity. At the end of the incubation period, the cells were assayed by using Calcein AM. Ten microliters of the stock solution were pipetted into each well and incubated for 1 hour. Fluorescence (FD) was measured with the Labsystem FIA Reader Fluoroscan Ascent (UK).

[6] = system: breast carcinoma cell line MCF-7; test: In vitro cytotoxicity, Calcein AM assay; details: read-out: GI50 MCF7
Protocol: as §1, §2, §3

mouse fibroblasts NIH3T3 = test: In vitro cytotoxicity, Calcein AM assay; details: read-out: GI50 NIH-3T3
Protocol: as §1, §2, §3

human osteosarcoma HOS = test: In vitro cytotoxicity, Calcein AM assay; details: read-out: GI50 HOS
Protocol: as §1, §2, §3

[7] = system: human myeloid leukemia K-562; test: In vitro cytotoxicity, Calcein AM assay; details: read-out: GI50 K-562
Protocol: as §1, §2, §3

| SMILES | concentration with highest activity [1] | Activity (%) [10^−5 mol · l^−1 BAP = 100%] [1] | concentration with highest activity [2] | Activity (%) [10^−5 mol · l^−1 BAP = 100%] [2] | activity (%) [10^−4 mol · l^−1 BAP = 100%] (excised wheat leaf tips) | concentration with highest activity (excised wheat leaf tips) | SENESCENT CELLS (%) HCA20 [3] | SENESCENT CELLS (%) HCA40 [3] | SENESCENT CELLS (%) HCA60 [3] | GI50 ([4]; CEM, 72 hours, Calcein AM) | GI50 ([5]; HL60, 72 hours, Calcein AM) | GI50 ([6]; MCF7, 72 hours, Calcein AM) | GI50 (mouse fibroblasts NIH3T3; NIH-3T3, 72 hours, Calcein AM) | GI50 (human osteosarcoma HOS; HOS, 72 hours, Calcein AM) | GI50 ([4]; Homo sapiens, 72 h) | GI50 ([5]; Homo sapiens, HL-60, 72 h) | GI50 ([6]; Homo sapiens, MCF7, 72 h) | GI50 (mouse fibroblasts NIH3T3; Mus musculus, NIH3T3, 72 h) | GI50 (human osteosarcoma HOS; Homo sapiens, 72 h) | GI50 ([7]; K-562, 72 hours, Calcein AM) | also measured |
| --- | --- | --- | --- | --- | --- | --- | --- | --- | --- | --- | --- | --- | --- | --- | --- | --- | --- | --- | --- | --- | --- |
| Cc1cc(CNc2ncnc3c2ncn3C2CCCCO2)ccc1O (stereo not drawn) [4-hydroxy-3-methylbenzylamino / tetrahydropyran-2-yl] | 10^−5 mol · l^−1 | 4% | 10^−4 mol · l^−1 | 7% | 9% | 10^−4 mol · l^−1 | 4% | 6% | 22% | > 167 µM | > 167 µM | > 167 µM | > 167 µM | > 167 µM |  |  |  |  |  |  |  |
| Cc1cc(CNc2ncnc3c2ncn3C2CCCCO2)ccc1O (stereo not drawn) [4-hydroxy-5-methylbenzylamino / tetrahydropyran-2-yl] | 10^−5 mol · l^−1 | 6% | 10^−4 mol · l^−1 | 5% | 3% | 10^−4 mol · l^−1 | 3% | 4% | 20% | > 167 µM | > 1670 µM | > 167 µM | > 1670 µM | > 167 µM |  |  |  |  |  |  |  |
| C/C(=C\CNc1ncnc2c1ncn2C1CCCCO1)CO (stereo not drawn) [6-(E)-(4-hydroxy-3-methylbut-2-en-1-ylamino)-9-(tetrahydropyran-2-yl)purine] | 10^−5 mol · l^−1 | 96.5% | 10^−4 mol · l^−1 | 299.4% | 38.2% | 10^−4 mol · l^−1 |  |  |  |  |  |  |  |  | > 167 µM | > 167 µM | > 167 µM | > 167 µM | > 167 µM |  |  |
| c1ccc(CNc2ncnc3nc[nH]c23)cc1 [benzylamino / H, 6-benzylaminopurine, reference compound] | 10^−6 mol · l^−1 | 100% | 10^−5 mol · l^−1 | 100% | 100% | 10^−4 mol · l^−1 |  |  |  |  |  |  |  |  | > 167 µM | > 167 µM | 166 µM | > 167 µM | > 167 µM |  | GI50 ([7]; Homo sapiens, K562, 72 h): 139 µM |
| c1coc(CNc2ncnc3[nH]cnc23)c1 [furfurylamino / H, reference compound] |  |  |  |  |  |  |  |  |  | 155 µM | 149 µM | > 167 µM | > 167 µM | > 167 µM |  |  |  |  |  | 164 µM |  |
| CC(C)=CCNc1ncnc2nc[nH]c12 [isopentenylamino / H] |  |  |  |  |  |  |  |  |  | 92.2 µM | > 167 µM | > 167 µM | > 167 µM | > 167 µM |  |  |  |  |  | 147 µM |  |
